Test results from PubChem BioAssay (NCI).
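Test compounds were applied to cells in 96-well plates for 48 hours at 5 doses. At the GI50, growth is halved. Definition used: TGI = concentration required for complete inhibition of growth.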

Key:
Assay in all cases: growth of human tumour cells (NCI), 48 h
[1] = test system: A498 renal
[2] = test system: U251 CNS
[3] = test system: HCT-116 colon
[4] = test system: MCF7 breast
[5] = test system: DU-145 prostate
[6] = test system: NCI-H226 lung
[7] = test system: TK-10 renal
[8] = test system: HS 578T breast
[9] = test system: SW-620 colon
[10] = test system: A549 NSCLC
[11] = test system: K-562 leukemia
[12] = test system: OVCAR-5 ovarian
[13] = test system: SK-OV-3 ovarian
[14] = test system: HCT-15 colon
[15] = test system: OVCAR-3 ovarian
[16] = test system: SF-539 CNS
[17] = test system: SF-295 CNS
[18] = test system: RPMI-8226 leukemia
[19] = test system: UO-31 renal
[20] = test system: LOX IMVI melanoma
[21] = test system: HT29 colon
[22] = test system: SK-MEL-2 melanoma
[23] = test system: SF-268 CNS
[24] = test system: OVCAR-4 ovarian
[25] = test system: SNB-19 CNS
[26] = test system: HCC-2998 colon
[27] = test system: ACHN renal
[28] = test system: UACC-257 melanoma
[29] = test system: CAKI-1 renal
[30] = test system: 786-0 renal
[31] = test system: MDA-MB-231 breast
[32] = test system: MOLT-4 leukemia
[33] = test system: CCRF-CEM leukemia
[34] = test system: RXF 393 renal
[35] = test system: COLO 205 colon
[36] = test system: MALME-3M melanoma
[37] = test system: HOP-92 NSCLC
[38] = test system: UACC-62 melanoma
[39] = test system: SN12C renal
[40] = test system: HL-60(TB) leukemia
[41] = test system: SK-MEL-28 melanoma
[42] = test system: SK-MEL-5 melanoma
[43] = test system: HOP-62 NSCLC
[44] = test system: EKVX NSCLC
[45] = test system: BT-549 breast
[46] = test system: PC-3 prostate
[47] = test system: SNB-75 CNS
[48] = test system: NCI/ADR-RES ovarian
[49] = test system: MDA-MB-435
[50] = test system: NCI-H23 lung
[51] = test system: NCI-H460 lung
[52] = test system: KM12 colon
[53] = test system: T-47D breast
[54] = test system: OVCAR-8 ovarian
[55] = test system: IGROV1 ovarian
[56] = test system: NCI-H522 lung
[57] = test system: M14 melanoma

Structure (SMILES): Ic1ccc2[nH]cc(SSc3c[nH]c4ccc(I)cc34)c2c1
- GI50 [1]: 2.06 µM
- TGI [1]: 5.97 µM
- GI50 [2]: 2.25 µM
- TGI [2]: 10.1 µM
- GI50 [3]: 1.25 µM
- TGI [3]: 3.08 µM
- GI50 [4]: 2.69 µM
- TGI [4]: 11.6 µM
- GI50 [5]: 3.47 µM
- TGI [5]: 12.9 µM
- GI50 [6]: 1.98 µM
- TGI [6]: 9.35 µM
- GI50 [7]: 2.88 µM
- TGI [7]: 10.1 µM
- GI50 [8]: 1.93 µM
- TGI [8]: 6.24 µM
- GI50 [9]: 2.74 µM
- TGI [9]: 10.5 µM
- GI50 [10]: 3.65 µM
- TGI [10]: 12 µM
- GI50 [11]: 2 µM
- TGI [11]: 6.27 µM
- GI50 [12]: 2.38 µM
- TGI [12]: 6.11 µM
- GI50 [13]: 3.46 µM
- TGI [13]: 11.7 µM
- GI50 [14]: 2.21 µM
- TGI [14]: 10.4 µM
- GI50 [15]: 1.73 µM
- TGI [15]: 5.56 µM
- GI50 [16]: 2.39 µM
- TGI [16]: 9.29 µM
- GI50 [17]: 1.89 µM
- TGI [17]: 4.69 µM
- GI50 [18]: 1.78 µM
- TGI [18]: 5.5 µM
- GI50 [19]: 3.06 µM
- TGI [19]: 17.3 µM
- GI50 [20]: 1.43 µM
- TGI [20]: 3.51 µM
- GI50 [21]: 3.36 µM
- TGI [21]: 11.2 µM
- GI50 [22]: 2.3 µM
- TGI [22]: 6.96 µM
- GI50 [23]: 2.99 µM
- TGI [23]: 10.9 µM
- GI50 [24]: 3.02 µM
- TGI [24]: 16.6 µM
- GI50 [25]: 3.25 µM
- TGI [25]: 11.9 µM
- GI50 [26]: 2.34 µM
- TGI [26]: 4.76 µM
- GI50 [27]: 2.25 µM
- TGI [27]: 6.99 µM
- GI50 [28]: 2.79 µM
- TGI [28]: 6.74 µM
- GI50 [29]: 2.23 µM
- TGI [29]: 6.3 µM
- GI50 [30]: 3.49 µM
- TGI [30]: 12.4 µM
- GI50 [31]: 2.1 µM
- TGI [31]: 5.13 µM
- GI50 [32]: 1.7 µM
- TGI [32]: 4.62 µM
- GI50 [33]: 1.25 µM
- TGI [33]: 3.48 µM
- GI50 [34]: 1.5 µM
- TGI [34]: 5.68 µM
- GI50 [35]: 1.91 µM
- TGI [35]: 4.02 µM
- GI50 [36]: 1.92 µM
- TGI [36]: 8.29 µM
- GI50 [37]: 0.936 µM
- TGI [37]: 3.69 µM
- GI50 [38]: 2.7 µM
- TGI [38]: 11.5 µM
- GI50 [39]: 2.86 µM
- TGI [39]: 11 µM
- GI50 [40]: 1.18 µM
- TGI [40]: 3.56 µM
- GI50 [41]: 3.36 µM
- TGI [41]: 12.6 µM
- GI50 [42]: 3.18 µM
- TGI [42]: 13.5 µM
- GI50 [43]: 3.14 µM
- TGI [43]: 8.71 µM
- GI50 [44]: 1.2 µM
- TGI [44]: 10.1 µM
- GI50 [45]: 1.35 µM
- TGI [45]: 7.04 µM
- GI50 [46]: 0.492 µM
- TGI [46]: 4.65 µM
- GI50 [47]: 2.36 µM
- TGI [47]: 9.28 µM
- GI50 [48]: 2.57 µM
- TGI [48]: 7.13 µM
- GI50 [49]: 2.84 µM
- TGI [49]: 8.97 µM
- GI50 [50]: 2.36 µM
- TGI [50]: 7.96 µM
- GI50 [51]: 2.41 µM
- TGI [51]: 6.52 µM
- GI50 [52]: 1.5 µM
- TGI [52]: 5.83 µM
- GI50 [53]: 2.68 µM
- TGI [53]: 11.2 µM
- GI50 [54]: 3.77 µM
- TGI [54]: 17.8 µM

Structure (SMILES): COc1cc(/C=C2\CC3C4CCC5=CC(=O)CC[C@]5(C)C4CC[C@]3(C)C2=O)ccc1OCCCn1ccnc1 (some centres undefined)
- GI50 [1]: 11.6 µM
- TGI [1]: 23.9 µM
- GI50 [2]: 9.09 µM
- TGI [2]: 21.2 µM
- GI50 [3]: 2.7 µM
- TGI [3]: 13.1 µM
- GI50 [4]: 4.02 µM
- TGI [4]: 19.9 µM
- GI50 [5]: 11.8 µM
- TGI [5]: 24.1 µM
- GI50 [6]: 11.2 µM
- TGI [6]: 27.5 µM
- GI50 [7]: 15.1 µM
- TGI [7]: 31.2 µM
- GI50 [8]: 8.45 µM
- TGI [8]: 29.8 µM
- GI50 [9]: 8.23 µM
- TGI [9]: 23.1 µM
- GI50 [10]: 5.32 µM
- TGI [10]: 21.7 µM
- GI50 [11]: 2.69 µM
- TGI [11]: 12.9 µM
- GI50 [12]: 18.6 µM
- TGI [12]: 37.9 µM
- GI50 [13]: 15.7 µM
- TGI [13]: 30.2 µM
- GI50 [14]: 4.03 µM
- TGI [14]: 16.2 µM
- GI50 [15]: 5.17 µM
- TGI [15]: 19.4 µM
- GI50 [55]: 9.13 µM
- TGI [55]: 29.5 µM
- GI50 [16]: 7.21 µM
- TGI [16]: 21.7 µM
- GI50 [17]: 2.47 µM
- TGI [17]: 7.41 µM
- GI50 [19]: 4.36 µM
- TGI [19]: 16.2 µM
- GI50 [20]: 3.75 µM
- TGI [20]: 14.4 µM
- GI50 [21]: 0.794 µM
- TGI [21]: 11.6 µM
- GI50 [23]: 13.6 µM
- TGI [23]: 34.4 µM
- GI50 [24]: 12.4 µM
- TGI [24]: > 100 µM
- GI50 [25]: 21.6 µM
- TGI [25]: > 100 µM
- GI50 [27]: 10.2 µM
- TGI [27]: 21.8 µM
- GI50 [28]: 2.1 µM
- TGI [28]: 7.47 µM
- GI50 [29]: 8.97 µM
- TGI [29]: 26.9 µM
- GI50 [30]: 11.6 µM
- TGI [30]: 23.8 µM
- GI50 [31]: 5.04 µM
- TGI [31]: 21 µM
- GI50 [32]: 4.09 µM
- TGI [32]: 18.9 µM
- GI50 [33]: 3.35 µM
- TGI [33]: 10 µM
- GI50 [34]: 0.0969 µM
- TGI [34]: 6.94 µM
- GI50 [35]: 4.52 µM
- TGI [35]: 22.7 µM
- GI50 [36]: 3.11 µM
- TGI [36]: 13.5 µM
- GI50 [37]: 6.22 µM
- TGI [37]: 22.8 µM
- GI50 [56]: 3.8 µM
- TGI [56]: 16.1 µM
- GI50 [38]: 5.18 µM
- TGI [38]: 24.9 µM
- GI50 [39]: 1.76 µM
- TGI [39]: 8.5 µM
- GI50 [40]: 2.86 µM
- TGI [40]: 10.2 µM
- GI50 [41]: 6.55 µM
- TGI [41]: 25.9 µM
- GI50 [42]: 2.07 µM
- TGI [42]: 7.1 µM
- GI50 [43]: 11.8 µM
- TGI [43]: 25.2 µM
- GI50 [44]: 17.6 µM
- TGI [44]: 45 µM
- GI50 [57]: 5.87 µM
- TGI [57]: 23.7 µM
- GI50 [45]: 4.45 µM
- TGI [45]: 33.4 µM
- GI50 [46]: 4.1 µM
- TGI [46]: 20.2 µM
- GI50 [48]: 4.51 µM
- TGI [48]: 18.5 µM
- GI50 [49]: 5.04 µM
- TGI [49]: 25.6 µM
- GI50 [50]: 2.22 µM
- TGI [50]: 4.43 µM
- GI50 [51]: 4.68 µM
- TGI [51]: 24.5 µM
- GI50 [52]: 3.75 µM
- TGI [52]: 20 µM
- GI50 [53]: 5.23 µM
- TGI [53]: 19 µM
- GI50 [54]: 5.93 µM
- TGI [54]: 22.1 µM
